Measurements as given in patent publication US3985761A, “Nitrothiazolyl derivatives of nitrostyrene” (priority 1974, dated 1976).
Converted amounts (≈) assume the structure as drawn. Read-outs that look alike come from different tables or passages of the source.

What was measured:
Hymenolepsis nana = assay: Activity against tapeworms Hymenolepsis nana in mice; format: in vivo, Hymenolepsis nana (infected Albimo mice); details: Mus musculus, po, 72 h, read-out: Activity: % of infected mice getting 100% clearance
Procedure: The anthelmintic properties of the products of the invention have been determined as follows:
Albimo mice of either sex (18-20 g.weight range) were administered by gavage 0.2 ml of the standard inoculum (containing 1000 viable eggs). 20 days later, the faecal matter was checked for Hymenolipis nana eggs. Mice showing the presence of H nana eggs were taken for experiments. They were classified on the weight basis. 5 animals were taken in each cage.
Compounds of the invention under investigation were suspended in 0.2% tragacanth. Concentrations were adjusted in such a way that 0.2 ml conformed to particular dosage schedule for each compound. They were administered by gavage in fasting condition in the morning on 21st day post infection, once daily for 3 consecutive days. For each set of test compound group, one cage of infected control mice was kept. These received saline for 3 days.
After 3 consecutive days of administration, all mice were kept fasting on the subsequent day (24th day post infection) and sacrificed on the 25th day. Results of surviving mice only have been taken. From each mouse, the whole intestine including caecum was collected in a petri dish with water. It was cut open longitudinally and was examined for adult worms and scolices. Absolute clearance of worms and scolices in individual mouse was taken as a criterion for assessing the results of each group.
The data on some of the compounds studied are represented in Table II

plant pathogenic fungi = details: C.A. Vol. 62, 14569e; cited from earlier work
Staph. aureus = assay: Antimicrobial serial dilution (MIC), S.a; format: cell-based; details: Staphylococcus aureus
S. typhi = assay: Antimicrobial serial dilution (MIC), S.t; format: cell-based; details: Salmonella enterica
E.coli = assay: Antimicrobial serial dilution (MIC), E.c.; format: cell-based; details: Escherichia coli
Proteus vulgaris ox 19 = assay: Antimicrobial serial dilution (MIC), Pr.ox; format: cell-based; details: OX19
S.Shigae = assay: microbe, parasite or virus in culture; format: cell-based; details: Shigella dysenteriae, read-out: MIC S.s
Ps. aeruginosa = assay: Antimicrobial serial dilution (MIC), P.a; format: cell-based; details: Pseudomonas aeruginosa
[1] = test system: antibiotic resistant Staph aureus; assay: Antimicrobial serial dilution (MIC), A/R S.a; format: cell-based; details: Staphylococcus aureus, read-out: MIC A/R S.a
Aspergillus fumigatus = assay: Antimicrobial serial dilution (MIC), A.f; format: cell-based
Phialophora jeanselmei = assay: Antimicrobial serial dilution (MIC), Ph.je; format: cell-based; details: Exophiala jeanselmei
Candida albicans = assay: Antimicrobial serial dilution (MIC), C.a; format: cell-based
[2] = test system: Trichophyton mentagrophytes; assay: Antimicrobial serial dilution (MIC), T.m; format: cell-based
microsporum gypseum = assay: Antimicrobial serial dilution (MIC), M.gy; format: cell-based; details: Nannizzia gypsea
Nocardia asteroides = assay: Antimicrobial serial dilution (MIC), N.a; format: cell-based
[3] = 400 mg/kg/day × 3 days, gavage, surviving mice only

Compound	MIC (Staph. aureus)	MIC (S. typhi)	MIC (E.coli)	MIC (Proteus vulgaris ox 19)	MIC (S.Shigae)	MIC (Ps. aeruginosa)	MIC [1]	MIC (Aspergillus fumigatus)	MIC (Phialophora jeanselmei)	MIC (Candida albicans)	MIC [2]	MIC (microsporum gypseum)	MIC (Nocardia asteroides)	other results
O=C(Nc1ccccc1)Oc1ccc(C=C[N+](=O)[O-])cc1	–	–	–	–	–	–	–	–	–	–	–	–	–	responders at 350 mg/kg (Hymenolepsis nana): 90%
Cc1ccc(NC(=O)Oc2ccc(C=C[N+](=O)[O-])cc2)cc1	–	–	–	–	–	–	–	–	–	–	–	–	–	responders at 400 mg/kg (Hymenolepsis nana): 94%
CCCCNC(=O)Oc1ccc(C=C(C)[N+](=O)[O-])cc1Cl	–	–	–	–	–	–	–	–	–	–	–	–	–	responders at 400 mg/kg (Hymenolepsis nana; [3]): 100%
CC(=Cc1ccc(OC(=O)Nc2ccccc2)c(Cl)c1)[N+](=O)[O-]	–	–	–	–	–	–	–	–	–	–	–	–	–	responders at 400 mg/kg (Hymenolepsis nana; [3]): 100%
CC(=Cc1ccc(OC(=O)Nc2ccc(C)cc2)c(Cl)c1)[N+](=O)[O-]	–	–	–	–	–	–	–	–	–	–	–	–	–	responders at 400 mg/kg (Hymenolepsis nana; [3]): 100%
O=C(Nc1ccc(Br)cc1)Oc1cccc(C=C[N+](=O)[O-])c1	–	–	–	–	–	–	–	–	–	–	–	–	–	responders at 400 mg/kg (Hymenolepsis nana): 100%
CC(=Cc1cccc(OC(=O)Nc2ccccc2)c1)[N+](=O)[O-]	–	–	–	–	–	–	–	–	–	–	–	–	–	responders at 400 mg/kg (Hymenolepsis nana; [3]): 100%
CC(=Cc1cccc(OC(=O)Nc2ccc(C)cc2)c1)[N+](=O)[O-]	–	–	–	–	–	–	–	–	–	–	–	–	–	responders at 200 mg/kg (Hymenolepsis nana; 200 mg/kg/day × 3 days, gavage, surviving mice only): 100%
O=[N+]([O-])C=Cc1ccc(O)c([N+](=O)[O-])c1 [3-nitro-4-hydroxy-β-nitrostyrene]	–	–	–	–	–	–	–	–	–	–	–	–	–	antifungal properties against plant pathogenic fungi (plant pathogenic fungi): antifungal properties against plant pathogenic fungi
CC(=Cc1ccc(OC(=O)Nc2ccc(C)cc2)cc1)[N+](=O)[O-] [drawing 3]	6.25 µg/mL (≈ 20 µM)	50 µg/mL (≈ 160 µM)	6.25 µg/mL (≈ 20 µM)	6.25 µg/mL (≈ 20 µM)	12.5 µg/mL (≈ 40 µM)	≥ 50 µg/mL	6.25 µg/mL (≈ 20 µM)	–	–	–	–	–	–	–
CC(=Cc1ccc(OC(=O)Nc2ccc(Br)cc2)cc1)[N+](=O)[O-] [drawing 4]	6.25 µg/mL (≈ 16.6 µM)	≥ 50 µg/mL	6.25 µg/mL (≈ 16.6 µM)	6.25 µg/mL (≈ 16.6 µM)	6.25 to 12.5 µg/mL (≈ 16.6 to 33.1 µM)	≥ 50 µg/mL	12.5 µg/mL (≈ 33.1 µM)	–	–	–	–	–	–	–
CCCCNC(=O)Oc1ccc(C=C(C)[N+](=O)[O-])cc1 [drawing 5]	6.25 µg/mL (≈ 22.5 µM)	50 µg/mL (≈ 180 µM)	6.25 to 12.5 µg/mL (≈ 22.5 to 44.9 µM)	6.25 µg/mL (≈ 22.5 µM)	12.5 µg/mL (≈ 44.9 µM)	≥ 50 µg/mL	6.25 µg/mL (≈ 22.5 µM)	–	–	–	–	–	–	–
CC(=Cc1ccc(OC(=O)NC2CCCCC2)cc1)[N+](=O)[O-] [drawing 6]	3.12 µg/mL (≈ 10.3 µM)	50 µg/mL (≈ 164 µM)	6.12 to 12.5 µg/mL (≈ 20.1 to 41.1 µM)	6.25 to 12.5 µg/mL (≈ 20.5 to 41.1 µM)	12.5 µg/mL (≈ 41.1 µM)	≥ 50 µg/mL	3.12 µg/mL (≈ 10.3 µM)	–	–	–	–	–	–	–
CC(=Cc1ccc(OC(=O)Nc2ccccc2)cc1)[N+](=O)[O-] [drawing 7]	6.25 µg/mL (≈ 21 µM)	50 µg/mL (≈ 168 µM)	6.25 µg/mL (≈ 21 µM)	12.5 µg/mL (≈ 41.9 µM)	6.25 µg/mL (≈ 21 µM)	≥ 50 µg/mL	3.12 to 6.25 µg/mL (≈ 10.5 to 21 µM)	–	–	–	–	–	–	–
CC(=Cc1cccc(O)c1)[N+](=O)[O-] [drawing 8]	3.12 µg/mL (≈ 17.4 µM)	50 µg/mL (≈ 279 µM)	3.12 µg/mL (≈ 17.4 µM)	3.12 µg/mL (≈ 17.4 µM)	3.12 µg/mL (≈ 17.4 µM)	50 µg/mL (≈ 279 µM)	3.12 µg/mL (≈ 17.4 µM)	–	–	–	–	–	–	–
CC(=Cc1ccc(Oc2ncc([N+](=O)[O-])s2)cc1)[N+](=O)[O-] [drawing 9]	1.56 µg/mL (≈ 5.08 µM)	50 µg/mL (≈ 163 µM)	3.12 µg/mL (≈ 10.2 µM)	1.56 to 3.12 µg/mL (≈ 5.08 to 10.2 µM)	3.12 µg/mL (≈ 10.2 µM)	≥ 50 µg/mL	1.56 µg/mL (≈ 5.08 µM)	–	–	–	–	–	–	–
CC(=Cc1ccc(O)c(Cl)c1)[N+](=O)[O-] [drawing 10]	3.12 µg/mL (≈ 14.6 µM)	50 µg/mL (≈ 234 µM)	12.5 to 25 µg/mL (≈ 58.5 to 117 µM)	6.25 µg/mL (≈ 29.3 µM)	25 µg/mL (≈ 117 µM)	≥ 50 µg/mL	3.12 µg/mL (≈ 14.6 µM)	–	–	–	–	–	–	–
O=[N+]([O-])C=Cc1cc(Cl)ccc1O [drawing 11]	3.12 µg/mL (≈ 15.7 µM)	50 µg/mL (≈ 251 µM)	50 µg/mL (≈ 251 µM)	25 µg/mL (≈ 125 µM)	50 µg/mL (≈ 251 µM)	≥ 50 µg/mL	3.12 µg/mL (≈ 15.7 µM)	–	–	–	–	–	–	–
CC(=Cc1ccc(OC(=O)Nc2ccc(Br)cc2)c(Cl)c1)[N+](=O)[O-] [drawing 12]	6.25 µg/mL (≈ 15.2 µM)	> 50 µg/mL	50 µg/mL (≈ 121 µM)	6.25 µg/mL (≈ 15.2 µM)	25 µg/mL (≈ 60.7 µM)	≥ 50 µg/mL	6.25 µg/mL (≈ 15.2 µM)	–	–	–	–	–	–	–
CC(=Cc1ccc(OC(=O)Nc2ccc(C)cc2)cc1)[N+](=O)[O-] [drawing 13]	–	–	–	–	–	–	–	12.5 µg/mL (≈ 40 µM)	6.25 µg/mL (≈ 20 µM)	12.5 µg/mL (≈ 40 µM)	3.12 µg/mL (≈ 10 µM)	1.56 to 3.12 µg/mL (≈ 4.99 to 10 µM)	25.5 µg/mL (≈ 81.6 µM)	–
CC(=Cc1ccc(OC(=O)Nc2ccc(Br)cc2)cc1)[N+](=O)[O-] [drawing 14]	–	–	–	–	–	–	–	12.5 µg/mL (≈ 33.1 µM)	1.56 µg/mL (≈ 4.14 µM)	22.5 to 25 µg/mL (≈ 59.7 to 66.3 µM)	1.56 µg/mL (≈ 4.14 µM)	1.56 µg/mL (≈ 4.14 µM)	50 µg/mL (≈ 133 µM)	–
CCCCNC(=O)Oc1ccc(C=C(C)[N+](=O)[O-])cc1 [drawing 15]	–	–	–	–	–	–	–	6.25 µg/mL (≈ 22.5 µM)	0.78 µg/mL (≈ 2.8 µM)	12.5 to 25 µg/mL (≈ 44.9 to 89.8 µM)	0.78 µg/mL (≈ 2.8 µM)	0.39 to 0.78 µg/mL (≈ 1.4 to 2.8 µM)	50 µg/mL (≈ 180 µM)	–
CC(=Cc1ccc(OC(=O)NC2CCCCC2)cc1)[N+](=O)[O-] [drawing 16]	–	–	–	–	–	–	–	6.25 to 12.5 µg/mL (≈ 20.5 to 41.1 µM)	6.25 µg/mL (≈ 20.5 µM)	25 µg/mL (≈ 82.1 µM)	0.78 µg/mL (≈ 2.56 µM)	6.25 µg/mL (≈ 20.5 µM)	50 µg/mL (≈ 164 µM)	–
CC(=Cc1ccc(OC(=O)Nc2ccccc2)cc1)[N+](=O)[O-] [drawing 17]	–	–	–	–	–	–	–	6.25 µg/mL (≈ 21 µM)	3.12 µg/mL (≈ 10.5 µM)	25 µg/mL (≈ 83.8 µM)	3.12 to 6.25 µg/mL (≈ 10.5 to 21 µM)	3.12 µg/mL (≈ 10.5 µM)	25 µg/mL (≈ 83.8 µM)	–
CC(=Cc1cccc(O)c1)[N+](=O)[O-] [drawing 18]	–	–	–	–	–	–	–	6.25 µg/mL (≈ 34.9 µM)	3.12 µg/mL (≈ 17.4 µM)	12.5 µg/mL (≈ 69.8 µM)	1.56 µg/mL (≈ 8.71 µM)	1.56 µg/mL (≈ 8.71 µM)	25 µg/mL (≈ 140 µM)	–
CC(=Cc1ccc(Oc2ncc([N+](=O)[O-])s2)cc1)[N+](=O)[O-] [drawing 19]	–	–	–	–	–	–	–	1.56 µg/mL (≈ 5.08 µM)	0.39 µg/mL (≈ 1.27 µM)	3.12 µg/mL (≈ 10.2 µM)	0.19 µg/mL (≈ 0.618 µM)	0.39 to 0.78 µg/mL (≈ 1.27 to 2.54 µM)	12.5 µg/mL (≈ 40.7 µM)	–
CC(=Cc1ccc(O)c(Cl)c1)[N+](=O)[O-] [drawing 20]	–	–	–	–	–	–	–	6.25 µg/mL (≈ 29.3 µM)	3.12 µg/mL (≈ 14.6 µM)	12.5 µg/mL (≈ 58.5 µM)	1.56 µg/mL (≈ 7.3 µM)	1.56 µg/mL (≈ 7.3 µM)	50 µg/mL (≈ 234 µM)	–
O=[N+]([O-])C=Cc1cc(Cl)ccc1O [drawing 21]	–	–	–	–	–	–	–	12.5 µg/mL (≈ 62.6 µM)	12.5 µg/mL (≈ 62.6 µM)	25.5 µg/mL (≈ 128 µM)	6.25 µg/mL (≈ 31.3 µM)	6.25 to 12.5 µg/mL (≈ 31.3 to 62.6 µM)	25 µg/mL (≈ 125 µM)	–
CC(=Cc1ccc(OC(=O)Nc2ccc(Br)cc2)c(Cl)c1)[N+](=O)[O-] [drawing 22]	–	–	–	–	–	–	–	6.25 µg/mL (≈ 15.2 µM)	3.12 µg/mL (≈ 7.59 µM)	25 µg/mL (≈ 60.7 µM)	1.56 µg/mL (≈ 3.79 µM)	1.56 µg/mL (≈ 3.79 µM)	50 µg/mL (≈ 121 µM)	–
CC(=Cc1ccc(OC(=O)Nc2ccccc2)cc1)[N+](=O)[O-] [drawing 25]	–	–	–	–	–	–	–	–	–	–	–	–	–	responders at 400 mg/kg (Hymenolepsis nana; [3]): 100%
